{"source": "patent US20230111310A1", "about": "“CARBOXYLIC ACID DERIVATIVE-SUBSTITUTED IMINO ARYL COMPOUND, PREPARATION METHOD THEREFOR, HERBICIDAL COMPOSITION AND USE THEREOF” (Qingdao Kingagroot Chemical Compound Co., Ltd., priority 2020, published 2023)", "experiment_in_all_cases": "Composition activity test, post-emergence foliage spray", "type_in_all_cases": "in vivo", "key": {"Malachium aquaticum": {"tested_on": "Malachium aquaticum", "procedure": "(§1) are as follows, and the others were purchased from reagent companies. The technical materials were all dissolved in acetone and diluted with an aqueous solution containing 0.1% emulsifier Tween-80. The dilution is performed as required.\n(§2) Weeds were cultivated by a pot culture method. […] Full and uniform weed seeds were selected, soaked in warm water at 25° C. for 6 hours, and germinated in a 28° C. biochemical incubator (darkness). The weed seeds that had just germinated were evenly placed on the surface of the soil and then covered with 0.5-1 cm soil according to the sizes of seeds.\n(§3) The culture was carried out in a controllable sunlight greenhouse at 20 to 30° C., in natural light, and relative humidity of 57% to 72%.\n(§4) 3 pots with 20 weed seeds per pot were treated in one treatment with 4 replications per treatment.\n(§5) The agents were used for only once in the experiment. In the stage of weeds with 1.5-2 leaves, the weeds were thinned out to maintain 10 weeds per pot and 30 weeds for each treatment, then continued to be cultured to Conyza Canadensis 10 cm in height, other weeds 3-4 leaves stage and treated.\n(§6) The well-cultured weeds were evenly placed on a platform with an area of 0.5 m^2, and a solution of agents was sprayed on the stems and leaves thereof by the 3WP-2000-type walking spray tower at a dosage of 450 kg/ha and at a spray pressure of 0.3 MPa. After all the solution was sprayed, the valve was closed. After 30 seconds, the door of the spray tower was opened, and the nutritional bowl was taken out. Then the valve was opened, and the spray tube was cleaned by spraying 50 ml of water. After the treatment, the weeds were routinely cultured in a greenhouse.\n(§7) A method for investigating absolute number was employed, wherein whole seedlings of survival weeds were cut off with a blade along the soil surface, and the fresh weight of the weeds was weighed with an analytical balance. For dead weeds, the fresh weight thereof was zero.\n(§8) The investigation was performed after 21 days of the treatment for only once.\n(§9) An optimum ratio of the two active ingredients was determined by the actual control effect, characteristics of herbicides, and balance of a corresponding formula. Wherein, in the formula, X represented the fresh weight inhibition rate of the active ingredient A in a dosage of P, and Y represented the fresh weight inhibition rate of the active ingredient B in a dosage of Q. The statistical results were shown in the table 6."}, "Eclipta prostrate": {"tested_on": "Eclipta prostrate", "conditions": "foliar, read-out: Control effect (%) of B applied alone (B)", "procedure": "as §1, §2, §3, §4, §5, §6, §7, §8, §9"}, "Lithospermum arvense": {"tested_on": "Lithospermum arvense", "procedure": "as §1, §2, §3, §4, §5, §6, §7, §8, §9"}, "Veronica didyma Tenore": {"tested_on": "Veronica didyma Tenore", "conditions": "Veronica polita, foliar, Veronica didyma Tenore, foliage, read-out: Control effect (%) of B applied alone (B)", "procedure": "as §1, §2, §3, §4, §5, §6, §7, §8, §9"}}, "note": "Where two headings read alike, the source gives them in different places."}
{"compound": "COCc1cnc(C2=NC(C)(C(C)C)C(=O)N2)c(C(=O)O)c1", "note": "(centres unmarked) [imazamox]", "values": [{"measurement": "Control effect (%) of B applied alone (B)", "setting": "Malachium aquaticum; B 15 g a.i./ha", "result": 27.2, "unit": "%"}]}
{"compound": "CC(C)c1ccc(NC(=O)N(C)C)cc1", "note": "[isoproturon]", "values": [{"measurement": "pest or weed control at 225 g/ha", "setting": "Eclipta prostrate; Eclipta prostrate, foliage, B 225 g a.i./ha", "result": 33.9, "unit": "%"}]}
{"compound": "CSc1nnc(C(C)(C)C)c(=O)n1N", "note": "[metribuzin]", "values": [{"measurement": "pest or weed control at 15 g/ha", "setting": "Eclipta prostrate; Eclipta prostrate, foliage, B 15 g a.i./ha", "result": 36.3, "unit": "%"}]}
{"compound": "COc1cc(OC)nc(NC(=O)NS(=O)(=O)c2ncccc2C(=O)N(C)C)n1", "note": "[nicosulfuron]", "values": [{"measurement": "Control effect (%) of B applied alone (B)", "setting": "Malachium aquaticum; B 3 g a.i./ha", "result": 31.4, "unit": "%"}]}
{"compound": "CC(C)Oc1cc(-n2nc(C(C)(C)C)oc2=O)c(Cl)cc1Cl", "note": "[oxadiazon]", "values": [{"measurement": "Control effect (%) of B applied alone (B)", "setting": "Lithospermum arvense; B 90 g a.i./ha", "result": 24.3, "unit": "%"}]}
{"compound": "CCOc1cc(Oc2ccc(C(F)(F)F)cc2Cl)ccc1[N+](=O)[O-]", "note": "[oxyfluorfen]", "values": [{"measurement": "Control effect (%) of B applied alone (B)", "setting": "Lithospermum arvense; B 60 g a.i./ha", "result": 31.5, "unit": "%"}]}
{"compound": "COC(=O)Nc1cccc(OC(=O)Nc2cccc(C)c2)c1", "note": "[phenmedipham]", "values": [{"measurement": "pest or weed control at 300 g/ha", "setting": "Eclipta prostrate; Eclipta", "result": 20.8, "unit": "%"}]}
{"compound": "Nc1c(Cl)c(Cl)nc(C(=O)O)c1Cl", "note": "[picloram]", "values": [{"measurement": "pest or weed control at 300 g/ha", "setting": "Veronica didyma Tenore; B 300 g a.i./ha", "result": 43.6, "unit": "%"}]}
{"compound": "CCC(=O)Nc1ccc(Cl)c(Cl)c1", "note": "[propanil]", "values": [{"measurement": "pest or weed control at 300 g/ha", "setting": "Eclipta prostrate; Eclipta prostrate, foliage, B 300 g a.i./ha", "result": 21.7, "unit": "%"}]}
{"compound": "C#CCN(C)c1c(C#N)cnn1-c1nn2c(c1Cl)CCCC2", "note": "[pyraclonil]", "values": [{"measurement": "Control effect (%) of B applied alone (B)", "setting": "Lithospermum arvense; B 75 g a.i./ha", "result": 37.9, "unit": "%"}]}
{"compound": "CCS(=O)(=O)c1cccnc1S(=O)(=O)NC(=O)Nc1nc(OC)cc(OC)n1", "note": "[rimsulfuron]", "values": [{"measurement": "Control effect (%) of B applied alone (B)", "setting": "Malachium aquaticum; B 1.5 g a.i./ha", "result": 26.2, "unit": "%"}]}
{"compound": "CC(C)N(C)S(=O)(=O)NC(=O)c1cc(-n2c(=O)cc(C(F)(F)F)n(C)c2=O)c(F)cc1Cl", "note": "[saflufenacil]", "values": [{"measurement": "Control effect (%) of B applied alone (B)", "setting": "Lithospermum arvense; B 0.75 g a.i./ha", "result": 39.7, "unit": "%"}]}
{"compound": "Cc1nn(-c2cc(NS(C)(=O)=O)c(Cl)cc2Cl)c(=O)n1C(F)F", "note": "[sulfentrazone]", "values": [{"measurement": "Control effect (%) of B applied alone (B)", "setting": "Lithospermum arvense; B 90 g a.i./ha", "result": 26.5, "unit": "%"}]}
{"compound": "CCNc1nc(Cl)nc(NC(C)(C)C)n1", "note": "[terbuthylazine]", "values": [{"measurement": "pest or weed control at 150 g/ha", "setting": "Eclipta prostrate; Eclipta prostrate, foliage, B 150 g a.i./ha", "result": 31.7, "unit": "%"}]}
{"compound": "COC(=O)c1csc(C)c1S(=O)(=O)NC(=O)n1nc(OC)n(C)c1=O", "note": "[thiencarbazone-methyl]", "values": [{"measurement": "Control effect (%) of B applied alone (B)", "setting": "Malachium aquaticum; B 3 g a.i./ha", "result": 41.1, "unit": "%"}]}
{"compound": "COC(=O)c1sccc1S(=O)(=O)NC(=O)Nc1nc(C)nc(OC)n1", "note": "[thifensulfuron methyl]", "values": [{"measurement": "Control effect (%) of B applied alone (B)", "setting": "Malachium aquaticum; B 4.5 g a.i./ha", "result": 30.8, "unit": "%"}]}
{"compound": "COC(=O)c1ccccc1S(=O)(=O)NC(=O)N(C)c1nc(C)nc(OC)n1", "note": "[tribenuron-methyl]", "values": [{"measurement": "Control effect (%) of B applied alone (B)", "setting": "Malachium aquaticum; B 3 g a.i./ha", "result": 27.9, "unit": "%"}]}
{"compound": "O=C(O)COc1nc(Cl)c(Cl)cc1Cl", "note": "[triclopyr]", "values": [{"measurement": "pest or weed control at 90 g/ha", "setting": "Veronica didyma Tenore; B 90 g a.i./ha", "result": 34.2, "unit": "%"}]}
{"compound": "C#CCN1C(=O)C(F)(F)Oc2cc(F)c(-n3c(=O)n(C)c(=S)n(C)c3=O)cc21", "note": "[trifludimoxazin]", "values": [{"measurement": "Control effect (%) of B applied alone (B)", "setting": "Lithospermum arvense; B 4.5 g a.i./ha", "result": 31.8, "unit": "%"}]}
{"compound": "oxadiargyl", "values": [{"measurement": "Control effect (%) of B applied alone (B)", "setting": "Lithospermum arvense; B 30 g a.i./ha", "result": 38.7, "unit": "%"}]}
